# Tested on: yeast genes (expressed mRNA)
# Test: DNA chip measurement of expressed mRNA of yeast genes after culture with a toxic chemical substance
# Format: cell-based, Saccharomyces cerevisiae S288C
# Details: for level of expressed mRNA in the presence of chemical substance / level in the absence of chemical substance: cultured two hours with the chemical substance; for The level of expressed mRNA in the presence of chemical substance/The level of expressed mRNA in the absence of chemical substance: cultured two hours with substance
# Description: Yeast (Saccharomyces cerevisiae S288C (a SUC2mal mel gap2 CUP1)) were cultured at 25° C. on YPD medium (yeast extract 1%, polypeptone 2%, glucose 2%). One of toxic chemical substances was added to the cell at logarithmic growth phase, and the cell was further cultured for two hours. Cell was cultured without any chemical substance in the same condition, and was used as a control. Concentrations of the chemical substances were defined to inhibit the growth of the yeast but not lead to death.
# After the completion of cultivation, the culture was centrifuged to collect the cells. To the cells, sodium acetate buffer (50 mM sodium acetate, 10 mM EDTA, 1% SDS) was added, and the mixture was shaken at 65° C. for five minutes, followed by returning to room temperature, and obtaining the supernatant, which procedure was repeated two times. To the supernatant, ½ amount of a solution of phenol/chloroform (1:1) was added, and the mixture was centrifuged to give a supernatant, an equal amount of chloroform was added, and the mixture was centrifuged to give a supernatant. To the supernatant, an equal amount of isopropanol containing 0.3 M sodium acetate was added, and the mixture was allowed to stand at room temperature for 30 minutes, after which the mixture was centrifuged to give sediment of the whole RNAs. Seventy % ethanol was added to the sediment, and the mixture was again centrifuged to give sediment, which was then dried and dissolved in water. mRNA was isolated from the whole RNAs as followings. In view of the fact that a poly A chain is attached to the 3′ terminus of mRNA, a polynucleotide having a poly T structure which was immobilized on the surface of latex beads was used to trap the mRNA, and then the mRNA was washed and eluted with spine column (Oligotex-dT30<Super>mRNA Purification Kit, Takara). Reverse transcription of the mRNA was conducted with a reverse transcriptase (Super Script II Reverse Transcriptase; catalogue No. 18064-014, GibcoBRL) using fluorescence-labeled nucleotides to give cDNAs that were introduced with Cy3-dUTP or Cy5-dUTP during the reverse transcription.
# The labeled cDNAs were dissolved in TE buffer (10 mM Tris-HCl/1 mM EDTA, pH 8.0), and the solution was dropped on the DNA chip containing the whole genes of yeast (DNA Chip Research Inc. Japan) so that the cDNAs were hybridized on the DNA chip at 65° C. for over 12 hours. The fluoresces intensity of the DNA chip was read with a scanner, and the ratio relative to the fluorescence intensity resulting from the absence of chemical substance was estimated as the following, which is shown in Tables 1 to 9.
# In the Tables, “Intensity” indicated in the rightmost column is a value of the level of expressed mRNA of each gene in control cells as divided by the average level of the expressions of the whole genes. A gene of which mRNA level is lower in control, and is higher in cases of addition of chemical substance, is especially useful in the detection of toxic substances.
# Here, when a ratio of an amount of mRNA expressed in the presence of the chemical substance to an amount of mRNA expressed in the absence of the chemical substance is two or more, then it is considered significant.
smiles,measurement,setting,value
"[Cl][Hg][Cl] [(3), HgCl2]",level of expressed mRNA in the presence of chemical substance / level in the absence of chemical substance,yeast gene YNL058C,2.1
same,level of expressed mRNA in the presence of chemical substance / level in the absence of chemical substance,yeast gene YNL063W,0.9
same,The level of expressed mRNA in the presence of chemical substance/The level of expressed mRNA in the absence of chemical substance,yeast gene YNL074C,1.8
same,The level of expressed mRNA in the presence of chemical substance/The level of expressed mRNA in the absence of chemical substance,yeast gene YNL092W,2.4
same,The level of expressed mRNA in the presence of chemical substance/The level of expressed mRNA in the absence of chemical substance,yeast gene YNL115C,1.6
same,The level of expressed mRNA in the presence of chemical substance/The level of expressed mRNA in the absence of chemical substance,yeast gene YNL156C,0.9
same,level of expressed mRNA in the presence of chemical substance / level in the absence of chemical substance,yeast gene YNL176C,2.9
same,level of expressed mRNA in the presence of chemical substance / level in the absence of chemical substance,yeast gene YNL194C,2.0
same,level of expressed mRNA in the presence of chemical substance / level in the absence of chemical substance,yeast gene YNL200C,3.6
same,The level of expressed mRNA in the presence of chemical substance/The level of expressed mRNA in the absence of chemical substance,yeast gene YNL234W,0.6
same,level of expressed mRNA in the presence of chemical substance / level in the absence of chemical substance,yeast gene YNL253W,0.6
same,level of expressed mRNA in the presence of chemical substance / level in the absence of chemical substance,yeast gene YNL276C,1.9
same,The level of expressed mRNA in the presence of chemical substance/The level of expressed mRNA in the absence of chemical substance,yeast gene YNL281W,2.0
same,The level of expressed mRNA in the presence of chemical substance/The level of expressed mRNA in the absence of chemical substance,yeast gene YNL305C,2.7
same,level of expressed mRNA in the presence of chemical substance / level in the absence of chemical substance,yeast gene YNR051C,1.1
same,The level of expressed mRNA in the presence of chemical substance/The level of expressed mRNA in the absence of chemical substance,yeast gene YNR068C,2.3
same,level of expressed mRNA in the presence of chemical substance / level in the absence of chemical substance,yeast gene YOL026C,0.7
same,The level of expressed mRNA in the presence of chemical substance/The level of expressed mRNA in the absence of chemical substance,yeast gene YOL032W,2.0
same,The level of expressed mRNA in the presence of chemical substance/The level of expressed mRNA in the absence of chemical substance,yeast gene YOL036W,1.3
same,The level of expressed mRNA in the presence of chemical substance/The level of expressed mRNA in the absence of chemical substance,yeast gene YOL047C,1.1
same,The level of expressed mRNA in the presence of chemical substance/The level of expressed mRNA in the absence of chemical substance,yeast gene YOL071W,1.7
same,The level of expressed mRNA in the presence of chemical substance/The level of expressed mRNA in the absence of chemical substance,yeast gene YOL082W,1.6
same,The level of expressed mRNA in the presence of chemical substance/The level of expressed mRNA in the absence of chemical substance,yeast gene YOL083W,1.2
same,The level of expressed mRNA in the presence of chemical substance/The level of expressed mRNA in the absence of chemical substance,yeast gene YOL117W,0.5
same,The level of expressed mRNA in the presence of chemical substance/The level of expressed mRNA in the absence of chemical substance,yeast gene YOL131W,0.6
same,The level of expressed mRNA in the presence of chemical substance/The level of expressed mRNA in the absence of chemical substance,yeast gene YOL150C,9.9
same,The level of expressed mRNA in the presence of chemical substance/The level of expressed mRNA in the absence of chemical substance,yeast gene YOL162W,1.7
same,The level of expressed mRNA in the presence of chemical substance/The level of expressed mRNA in the absence of chemical substance,yeast gene YOR019W,0.8
same,level of expressed mRNA in the presence of chemical substance / level in the absence of chemical substance,yeast gene YOR022C,1.1
same,level of expressed mRNA in the presence of chemical substance / level in the absence of chemical substance,yeast gene YOR087W,1.8
same,level of expressed mRNA in the presence of chemical substance / level in the absence of chemical substance,yeast gene YOR138C,0.7
same,The level of expressed mRNA in the presence of chemical substance/The level of expressed mRNA in the absence of chemical substance,yeast gene YOR197W,1.1
same,level of expressed mRNA in the presence of chemical substance / level in the absence of chemical substance,yeast gene YOR253W,1.0
same,level of expressed mRNA in the presence of chemical substance / level in the absence of chemical substance,yeast gene YOR267C,1.0
same,level of expressed mRNA in the presence of chemical substance / level in the absence of chemical substance,yeast gene YOR325W,1.5
same,level of expressed mRNA in the presence of chemical substance / level in the absence of chemical substance,yeast gene YPL005W,1.0
same,The level of expressed mRNA in the presence of chemical substance/The level of expressed mRNA in the absence of chemical substance,yeast gene YPL087W,3.0
same,level of expressed mRNA in the presence of chemical substance / level in the absence of chemical substance,yeast gene YPL150W,1.6
same,level of expressed mRNA in the presence of chemical substance / level in the absence of chemical substance,yeast gene YPL152W,1.4
same,level of expressed mRNA in the presence of chemical substance / level in the absence of chemical substance,yeast gene YPL168W,0.5
same,level of expressed mRNA in the presence of chemical substance / level in the absence of chemical substance,yeast gene YPL180W,0.7
same,level of expressed mRNA in the presence of chemical substance / level in the absence of chemical substance,yeast gene YPL188W,2.9
same,The level of expressed mRNA in the presence of chemical substance/The level of expressed mRNA in the absence of chemical substance,yeast gene YPL196W,1.3
same,The level of expressed mRNA in the presence of chemical substance/The level of expressed mRNA in the absence of chemical substance,yeast gene YPL206C,1.4
same,level of expressed mRNA in the presence of chemical substance / level in the absence of chemical substance,yeast gene YPL221W,1.0
same,The level of expressed mRNA in the presence of chemical substance/The level of expressed mRNA in the absence of chemical substance,yeast gene YPL222W,0.8
same,level of expressed mRNA in the presence of chemical substance / level in the absence of chemical substance,yeast gene YPL225W,1.0
same,The level of expressed mRNA in the presence of chemical substance/The level of expressed mRNA in the absence of chemical substance,yeast gene YPR023C,1.2
same,level of expressed mRNA in the presence of chemical substance / level in the absence of chemical substance,yeast gene YPR049C,1.5
same,level of expressed mRNA in the presence of chemical substance / level in the absence of chemical substance,yeast gene YPR146C,1.3
same,level of expressed mRNA in the presence of chemical substance / level in the absence of chemical substance,yeast gene YPR148C,0.8
same,The level of expressed mRNA in the presence of chemical substance/The level of expressed mRNA in the absence of chemical substance,yeast gene YPR151C,1.5
same,level of expressed mRNA in the presence of chemical substance / level in the absence of chemical substance,yeast gene YPR172W,2.2

# From patent US20100041089A1, “IMPROVED METHOD FOR DETECTING CHEMICAL […]” (priority 2006, published 2010)
